Results as given in patent US20240398764A1, “METHODS OF TREATING DISEASES ASSOCIATED WITH SENESCENT CELL ACCUMULATION” (University of Florida Research Foundation, Incorporated, priority 2021, published 2024).

Columns and labels:
[1] = system: normal non-senescent WI-38 fibroblast cells (Non-SnCs); assay: Viability of non-senescent WI-38 fibroblast cells; format: cell-based; details: 72 hr incubation; vs ABT263
From the text: FIG. 2A depicts immunoblots showing degradation of Bcl-xl and Bcl-2 in non-senescent WI-38 fibroblast cells (Non-SnCs) treated with varying concentrations of 753b. 3-actin was used as a loading control. FIG. 2B depicts viability of Non-SnCs treated with varying concentrations of 753b or ABT263. FIG. 2C depicts immunoblots showing degradation of Bcl-xl and Bcl-2 in ionizing radiation-induced senescent WI-38 fibroblast cells (IR-SnCs) treated with varying concentrations of 753b. 3-actin was used as a loading control. FIG. 2D depicts viability of IR-SnCs treated with varying concentrations of 753b or ABT263. FIG. 2E depicts immunoblots showing degradation of Bcl-xl and Bcl-2 in human platelets treated with varying concentrations of 753b. FIG. 2F depicts viability of human platelets treated with varying concentrations of 753b or ABT263.
The potency of 753b in degrading Bcl-xl/2 was evaluated by immunoblots after the cells or platelets were treated with different concentrations of 753b for 16 h ([…]). 753b is more cytotoxic to IR-SnCs but less toxic to Non-SnCs and platelets. The viability of Non-SnCs, IR-SnCs and platelets was measured 72 hr (Non-SnCs and IR-SnCs) and 48 hr (platelets) after they were incubated with increasing concentrations of 753b or ABT263 compared to cells/platelets with vehicle.

[2] = Body conditions and insulin tolerance test in the STAM model; format: in vivo, C57BL6 mice; details: STZ/HFD mice; 5 mg/kg twice a week IP; postnatal day 150
Protocol: FIG. 8A is an image showing body condition of STZ/HFD mice treated with vehicle control or 753b. FIG. 8B depicts blood glucose (mg/dL) levels versus time after intraperitoneal injection of insulin in STZ/HFD mice treated with vehicle control or 753b. Data were means±SD from 5 mice per group. *p<0.05.
Experimental design: C57BL6 mice were injected with Streptozotocin (STZ) at postnatal day 2 to induce diabetes and then fed with HFD from postnatal day 30 till the end of the experiments (FIG. 5). Half of the mice started receiving vehicle and the others receiving 753b (5 mg/kg) treatment on postnatal day 45 twice a week by IP injection till the end of the experiments. A group of the mice were euthanized at postnatal day 90 (or day 45 after the initiation of the treatment) for analysis of senescent cell accumulation and steatosis. Another group of the mice were euthanized at postnatal day 150 (or day 105 after the initiation of the treatment) for analysis of liver fibrosis and cancer.
753b administration improves body conditions and ameliorates the development of insulin resistance in the STAM model. All the analyses were done in mice at postnatal day 150 (p150 or 105 days after treatment).

[3] = target: Bcl-xl (Homo sapiens, UniProt Q07817); assay: Immunoblot of Bcl-xl degradation in HEK293T cells; format: cell-based; set-up: endogenous in cells; details: different concentrations for 16 h, or 1 μM for various time points
Protocol: FIG. 1A depicts immunoblots showing degradation of Bcl-xl and Bcl-2 in HEK293T cells treated with various concentrations of 753b for 16 hours. FIG. 1B depicts immunoblots showing degradation of Bcl-xl and Bcl-2 in HEK293T cells treated with 1 μM 753b for various durations. 3-actin was used as a loading control.
The potency of 753b in degrading Bcl-xl/2 was evaluated in 293T cells by immunoblots after the cells were treated with different concentrations of 753b for 16 h (FIG. 1A) or after the cells were treated with 1 μM 753b for various time points as indicated (FIG. 1B). Representative immunoblots are shown, and β-actin was used as a loading control.

[4] = system: IR-induced senescent renal epithelial cells (IR-SnC REC); assay: Viability of IR-SnC REC; format: cell-based; details: 72 hr incubation; vs ABT263
Protocol: FIGS. 3A to 3B depicts viability of non-SnC human umbilical vein endothelial cells (HUVEC) and IR-induced SnC HUVEC treated with varying concentrations of ABT263 (FIG. 3A) or 753b (FIG. 3B). FIGS. 3C to 3D depict viability of non-SnC renal epithelial cells (REC), IR-induced SnC REC, and replicative senescent REC treated with varying concentrations of ABT263 (FIG. 3C) or 753b (FIG. 3D).
The viability of Non-SnC HUVEC, Non-SnC REC, IR-SnC HUVEC, IR-SnC REC, and Rep-SnC REC was measured 72 hr after they were incubated with increasing concentrations of 753b or ABT263 compared to cells/platelets with vehicle.

Bcl-xl, sequence (Q07817 whole entry): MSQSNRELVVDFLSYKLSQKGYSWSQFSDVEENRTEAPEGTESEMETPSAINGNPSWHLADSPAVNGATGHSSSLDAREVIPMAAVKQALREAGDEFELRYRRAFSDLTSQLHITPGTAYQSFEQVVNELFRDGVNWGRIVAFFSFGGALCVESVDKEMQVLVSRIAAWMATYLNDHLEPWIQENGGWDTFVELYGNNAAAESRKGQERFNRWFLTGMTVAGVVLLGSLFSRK

Cc1ncsc1-c1ccc([C@H](C)NC(=O)[C@@H]2C[C@@H](O)CN2C(=O)[C@@H](NC(=O)CCCCCCC(=O)N2CCN(C[C@]3(C)CCC(c4ccc(Cl)cc4)=C(CN4CCN(c5ccc(C(=O)NS(=O)(=O)c6ccc(N[C@H](CCN7CCOCC7)CSc7ccccc7)c(S(=O)(=O)C(F)(F)F)c6)cc5)CC4)C3)CC2)C(C)(C)C)cc1 [Compound 753b]
Toxicity (viability) to Non-SnCs compared with ABT263 [1]: less toxic | Body conditions (dehydration and dampen hair) [2]: prevented the development of abnormal body conditions | Insulin resistance (intraperitoneal injected insulin tolerance test) [2]: prevented insulin resistance | Bcl-xl degradation [3]: degrades Bcl-xl and Bcl-2 in a dose- and time-dependent manner | Senolytic potency (viability) against IR-SnC REC compared with ABT263 [4]: more potent senolytic agent
